Experimental data as given in patent US10052320B2, “Substituted quinoxalines as FGFR kinase inhibitors” (ASTEX THERAPEUTICS LIMITED, priority 2011, dated 2018).

Columns and labels:
[1] = target: Ba/F3-FGFR1-transfected cells (Homo sapiens, UniProt P11362); test: Ba/F3-FGFR1 (minus IL3) cellular proliferation assay, Alamar Blue; format: cell-based; conditions: for BAF3-FGFR 1 (MIN IL3) 384 well pIC50: minus IL3, 384 well; for BAF3-FGFR 1 (MIN IL3) 96 well pIC50: minus IL3, 96 well
In short: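 24 h cmpd exposure, 37 °C/5% CO2; phenol red-free RPMI-1640, 10% FBS; 20000 cells/well (384) or 10000 cells/well (96); Alamar Blue (0.15 mM resazurin) 4 h; RFU ex 540/em 590.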

FGFR4 (h) = FGFR4 (h) (Homo sapiens, UniProt P22455); test: FGFR4 (enzymatic assay), TR-FRET; format: biochemical; conditions: read-out: FGFR 4 pIC50 (converted)
Experimental: In a final reaction volume of 30 μL, FGFR4 (h) (60 ng/ml) was incubated with 50 mM HEPES pH 7.5, 6 mM MnCl2, 1 mM DTT, 0.1 mM Na3VO4, 0.01% Triton-X-100, 500 nM Btn-Flt3 and 5 μM ATP in the presence of compound (1% DMSO final). […] Time-Resolved Fluorescence Resonance Energy Transfer (TR-FRET) signal (ex340 nm. Em 620 nm, em 655 nm) was measured afterwards and results are expressed in RFU (Relative Fluorescence Units).

FGFR1 (h) = FGFR1 (h) (Homo sapiens, UniProt P11362); test: FGFR1 (enzymatic assay), TR-FRET; format: biochemical; conditions: read-out: FGFR 1 pIC50 (converted)
Experimental: In a final reaction volume of 30 μL, FGFR1 (h) (25 ng/ml) was incubated with 50 mM HEPES pH 7.5, 6 mM MnCl2, 1 mM DTT, 0.1 mM Na3VO4, 0.01% Triton-X-100, 500 nM Btn-Flt3 and 5 μM ATP in the presence of compound (1% DMSO final). […] Time-Resolved Fluorescence Resonance Energy Transfer (TR-FRET) signal (ex340 nm. Em 620 nm, em 655 nm) was measured afterwards and results are expressed in RFU (Relative Fluorescence Units).

[2] = target: T1, Ba/F3-Flt3-transfected cells (Homo sapiens, UniProt P36888, cells depend on it, form not given); test: Ba/F3-Flt3 (minus IL3) cellular proliferation assay, Alamar Blue; format: cell-based
T1 sequence (P36888 1-993): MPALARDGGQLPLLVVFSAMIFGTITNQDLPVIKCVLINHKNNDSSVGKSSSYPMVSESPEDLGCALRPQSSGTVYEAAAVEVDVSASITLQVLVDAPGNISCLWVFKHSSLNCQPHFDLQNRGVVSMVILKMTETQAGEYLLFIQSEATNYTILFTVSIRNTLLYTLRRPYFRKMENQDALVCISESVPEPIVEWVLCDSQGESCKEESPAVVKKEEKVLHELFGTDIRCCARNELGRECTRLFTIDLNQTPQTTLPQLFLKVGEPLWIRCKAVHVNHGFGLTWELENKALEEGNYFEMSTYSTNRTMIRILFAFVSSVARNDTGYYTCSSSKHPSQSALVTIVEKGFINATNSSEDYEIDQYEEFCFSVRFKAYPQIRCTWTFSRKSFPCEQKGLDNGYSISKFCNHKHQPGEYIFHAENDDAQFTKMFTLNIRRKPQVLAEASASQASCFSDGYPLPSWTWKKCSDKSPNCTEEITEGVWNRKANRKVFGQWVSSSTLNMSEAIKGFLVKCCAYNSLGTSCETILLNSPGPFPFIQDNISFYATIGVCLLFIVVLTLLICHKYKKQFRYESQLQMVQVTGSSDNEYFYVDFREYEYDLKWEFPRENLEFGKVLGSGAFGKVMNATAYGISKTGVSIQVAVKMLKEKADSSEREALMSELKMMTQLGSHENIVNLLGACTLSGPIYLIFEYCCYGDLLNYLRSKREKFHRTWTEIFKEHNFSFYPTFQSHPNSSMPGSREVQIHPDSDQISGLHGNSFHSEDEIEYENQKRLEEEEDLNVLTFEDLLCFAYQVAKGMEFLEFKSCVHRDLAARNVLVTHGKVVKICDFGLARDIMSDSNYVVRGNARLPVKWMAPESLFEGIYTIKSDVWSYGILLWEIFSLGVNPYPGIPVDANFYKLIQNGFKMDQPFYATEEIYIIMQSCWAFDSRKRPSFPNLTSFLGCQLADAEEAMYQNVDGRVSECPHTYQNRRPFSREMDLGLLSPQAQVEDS

Sequence of Ba/F3-FGFR1-transfected cells (P11362 whole entry, change not shown): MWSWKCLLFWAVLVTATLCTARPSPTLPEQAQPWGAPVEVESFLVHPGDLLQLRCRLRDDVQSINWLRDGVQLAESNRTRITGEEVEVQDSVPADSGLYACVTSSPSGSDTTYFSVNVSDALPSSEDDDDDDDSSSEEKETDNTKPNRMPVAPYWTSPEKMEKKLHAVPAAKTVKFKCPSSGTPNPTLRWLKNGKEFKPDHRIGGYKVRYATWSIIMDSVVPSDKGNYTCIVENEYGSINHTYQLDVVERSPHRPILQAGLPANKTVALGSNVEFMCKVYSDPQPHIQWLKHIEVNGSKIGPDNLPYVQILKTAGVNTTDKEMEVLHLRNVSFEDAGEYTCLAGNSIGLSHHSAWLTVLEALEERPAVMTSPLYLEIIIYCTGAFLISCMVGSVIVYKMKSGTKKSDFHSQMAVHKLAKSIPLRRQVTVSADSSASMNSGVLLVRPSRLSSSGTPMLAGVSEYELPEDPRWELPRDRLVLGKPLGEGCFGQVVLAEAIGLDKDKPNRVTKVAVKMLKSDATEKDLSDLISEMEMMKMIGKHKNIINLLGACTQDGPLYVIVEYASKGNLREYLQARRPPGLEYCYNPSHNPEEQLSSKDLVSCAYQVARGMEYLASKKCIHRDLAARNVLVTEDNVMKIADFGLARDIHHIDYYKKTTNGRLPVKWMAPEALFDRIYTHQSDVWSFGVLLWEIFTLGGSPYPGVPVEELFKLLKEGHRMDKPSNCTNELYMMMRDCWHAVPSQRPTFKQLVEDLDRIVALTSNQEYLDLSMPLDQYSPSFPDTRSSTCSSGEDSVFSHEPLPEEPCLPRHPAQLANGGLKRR
Sequence of FGFR1 (h) (P11362 22-822): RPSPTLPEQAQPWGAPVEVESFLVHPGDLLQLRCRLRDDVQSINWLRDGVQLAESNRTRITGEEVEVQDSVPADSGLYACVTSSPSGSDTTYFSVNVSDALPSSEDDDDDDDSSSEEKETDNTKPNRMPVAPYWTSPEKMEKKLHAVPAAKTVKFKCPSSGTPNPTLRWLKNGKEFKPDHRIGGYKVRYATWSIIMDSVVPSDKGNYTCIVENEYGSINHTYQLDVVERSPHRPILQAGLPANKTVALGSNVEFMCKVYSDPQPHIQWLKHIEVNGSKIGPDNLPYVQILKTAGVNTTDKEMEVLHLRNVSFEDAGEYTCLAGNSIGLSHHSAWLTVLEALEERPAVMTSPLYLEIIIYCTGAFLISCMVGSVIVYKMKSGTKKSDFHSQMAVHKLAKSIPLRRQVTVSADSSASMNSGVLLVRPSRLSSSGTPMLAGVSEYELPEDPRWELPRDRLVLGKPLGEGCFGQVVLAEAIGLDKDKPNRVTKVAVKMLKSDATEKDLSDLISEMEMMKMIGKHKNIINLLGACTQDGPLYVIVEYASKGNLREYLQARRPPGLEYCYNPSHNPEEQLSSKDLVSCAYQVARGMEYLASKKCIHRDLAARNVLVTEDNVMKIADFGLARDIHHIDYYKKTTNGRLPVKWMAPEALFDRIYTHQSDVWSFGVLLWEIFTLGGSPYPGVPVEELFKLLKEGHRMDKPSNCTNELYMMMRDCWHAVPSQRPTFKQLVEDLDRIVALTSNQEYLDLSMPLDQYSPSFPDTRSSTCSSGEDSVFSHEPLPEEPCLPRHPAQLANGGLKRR
Sequence of FGFR4 (h) (P22455 22-802): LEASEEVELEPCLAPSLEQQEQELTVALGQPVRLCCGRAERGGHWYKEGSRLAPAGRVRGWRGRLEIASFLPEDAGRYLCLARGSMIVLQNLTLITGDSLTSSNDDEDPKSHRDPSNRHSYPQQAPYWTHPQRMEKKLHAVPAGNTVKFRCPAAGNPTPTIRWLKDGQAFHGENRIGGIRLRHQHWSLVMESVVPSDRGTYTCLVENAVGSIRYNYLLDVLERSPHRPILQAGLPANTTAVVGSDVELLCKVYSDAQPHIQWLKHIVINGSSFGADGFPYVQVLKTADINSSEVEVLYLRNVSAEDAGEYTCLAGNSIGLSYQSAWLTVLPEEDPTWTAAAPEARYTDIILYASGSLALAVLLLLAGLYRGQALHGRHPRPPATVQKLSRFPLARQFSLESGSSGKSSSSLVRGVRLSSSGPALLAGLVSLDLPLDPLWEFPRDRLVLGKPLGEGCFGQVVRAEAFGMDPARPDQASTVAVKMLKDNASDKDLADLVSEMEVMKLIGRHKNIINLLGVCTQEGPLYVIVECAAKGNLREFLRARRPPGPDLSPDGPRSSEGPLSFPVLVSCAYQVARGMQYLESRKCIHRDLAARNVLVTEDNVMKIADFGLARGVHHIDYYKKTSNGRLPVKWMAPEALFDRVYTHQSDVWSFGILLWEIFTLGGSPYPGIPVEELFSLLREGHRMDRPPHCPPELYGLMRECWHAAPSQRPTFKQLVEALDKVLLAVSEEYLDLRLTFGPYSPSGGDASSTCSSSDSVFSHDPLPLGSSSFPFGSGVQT

SMILES | BAF3-FGFR 1 (MIN IL3) 384 well pIC50 [1] | melting point [°C] | IC50 (FGFR4 (h)) [µM] | IC50 (FGFR1 (h)) [µM] | BAF3-FLT3 (MIN IL3) 96 well pIC50 ([2]; minus IL3) | BAF3-FLT3 (MIN IL3) 384 well pIC50 ([2]; minus IL3) | BAF3-FGFR 1 (MIN IL3) 96 well pIC50 [1] | BAF3-FLT3 (MIN IL3) 96 well pIC50 ([2]; minus IL3, 96 well) | BAF3-FLT3 (MIN IL3) 384 well pIC50 ([2]; minus IL3, 384 well)
COc1cc(OC)cc(N(CC2CC2)c2ccc3ncc(-n4cccn4)nc3c2)c1 [Compound 95] | <5 | 160 | > 10 | 1.32 | <5 | <5 | – | – | –
COc1cc(OC)cc(N(CC2CC2)c2ccc3ncc(C(=O)N4CCC4)nc3c2)c1 [Compound 93] | <5 | 176 | > 10 | > 10 | <5 | <5 | <5 | – | –
COc1cc(OC)cc(N(CCO)c2ccc3ncc(C4=CCN(C(=O)OC(C)(C)C)C4)nc3c2)c1 [Compound 173] | 5.68 | 142 | 0.1 | 0.0295 | – | <5 | – | – | –
COc1cc(OC)cc(N(CCO)c2ccc3ncc(C(=O)Nc4cnn(C)c4)nc3c2)c1 [Compound 184] | 5.28 | 227 | 0.309 | 0.141 | – | <5 | – | – | –
COc1cc(OC)cc(N(CCO)c2ccc3ncc(-n4cnc(CO)c4)nc3c2)c1 [Compound 38] | 6.31 | 215 | 0.0933 | 0.0151 | – | <5 | – | – | –
COc1cc(OC)cc(N(CC2CC2)c2ccc3ncc(-c4nnc(C)o4)nc3c2)c1 [Compound 85] | <5 | 134 | 1.48 | 0.302 | – | – | – | <5 | <5
COc1cc(OC)cc(N(CCNC(C)C)c2ccc3ncc(-c4ccc(N5CCOCC5)nc4)nc3c2)c1 [Compound 168] | 7.04 | 135 | 0.00832 | 0.000955 | – | 5.13 | – | – | –
COCC(O)CN(c1cc(OC)cc(OC)c1)c1ccc2ncc(-c3cccnc3)nc2c1 (single isomer, unassigned) [Compound 47] | 6.29 | 153 | 0.115 | 0.0214 | – | <5 | – | – | –
COc1cc(OC)cc(N(CCO)c2ccc3ncc(-c4ccc(N5CCN(C(=O)OC(C)(C)C)CC5)cc4)nc3c2)c1 [Compound 156] | 5.7 | 80 | 0.0955 | 0.0457 | – | <5 | – | – | –
COc1cc(OC)cc(N(CCCNCC(=O)O)c2ccc3ncc(-c4ccnc(C(=O)NCCCCN)c4)nc3c2)c1 [Compound 44] | <5 | 64 | 0.0513 | 0.0174 | – | <5 | – | – | –
COc1cc(OC)cc(N(CCN2CCNCC2)c2ccc3ncc(-c4ccc(N)nc4)nc3c2)c1 [Compound 59] | 6.22 | 111 | 0.0646 | 0.00363 | – | 5.28 | – | – | –
COc1cc(OC)cc(N(CC2CC2)c2ccc3ncc(NC(=O)c4ccc(F)cc4)nc3c2)c1 [Compound 28] | <5 | 135 | > 10 | 2.4 | <5 | <5 | – | – | –
COc1cc(OC)cc(N(CCO)c2ccc3ncc(/C(C)=N/OC(C)(C)C)nc3c2)c1 [Compound 171] | <5 | 147 | 0.871 | 0.603 | – | <5 | – | – | –
COc1cc(OC)cc(N(CC2CC2)c2ccc3ncc(-c4ccc5c(c4)OCO5)nc3c2)c1 [Compound 87] | <5.4 | 144 | 3.55 | 0.617 | – | – | – | – | <5.4
CNc1ccc(-c2cnc3ccc(N(CCCNCC(F)(F)F)c4cc(OC)cc(OC)c4)cc3n2)cn1 [Compound 129] | 5.62 | 165 | 0.0871 | 0.0195 | – | <5 | – | – | –
COc1cc(OC)cc(N(CC2CC2)c2ccc3ncc(-c4ccnc(N5CCN(C)CC5)c4)nc3c2)c1 [Compound 37] | 5.16 | 125 | 0.302 | 0.0302 | – | – | 5.4 | 5.59 | 5.05
COc1cc(OC)cc(N(CCO)c2ccc3ncc(-c4ccccc4CCO)nc3c2)c1 [Compound 151] | 5.52 | 133 | 0.891 | 0.282 | – | <5 | – | – | –
COc1cc(OC)cc(N(CCNC(C)C)c2ccc3ncc(-n4cnc(COC(C)=O)c4)nc3c2)c1 [Compound 167] | 7.13 | 56 | 0.0316 | 0.00166 | – | <5 | – | – | –
